Several values for one entry are separate records, joined by “and”; a condition that tells them apart may be missing. Equal values may be shown once.
Tests used:
[1] = tested on: HIV-1-transfected HeLa host cells (pNL4-3); assay: Virus release in HIV-transfected HeLa cells (radiolabel, immunoprecipitation); format: cell-based, human; conditions: vs untreated transfected HeLa cells
Text: Briefly, HeLa cells were transfected (calcium phosphate method) with the full-length, infectious HIV-1 molecular clone pNL4-3 to examine single-cycle particle production (Freed, 1994). Transfected cells were metabolically radiolabeled, and cell- and virus-associated proteins were immunoprecipitated and quantified as previously described (Waheed and Freed, 2008). Virus release efficiency was reduced in a concentration-dependent manner with FX101 as compared with untreated controls.

IL-13 = assay: Feline blood serum immunofluorescent bead analysis: IL-13; format: in vivo, cat; conditions: cats BR, CF
Method: (§1) Test sera samples from select felines were analyzed using the Rules-Based Medicine (Austin, Tex.) human multi-analyte for 90 measures from a single sample of less than 0.5 mL. The assay uses immunofluorescent beads to simultaneously measure antibody recognition to individually identifiable colored beads, each conjugated with a specific antibody, within a single well plate. Blood samples were drawn preceding (pretreatment) and following (post treatment) one-month FX101 treatment (from felines in Example 6), and are compared with two uninfected control felines. Human cross-reactive antibodies are commonly used for felines, and are relative rather than quantitative measures. Reductions in TNF-alpha and MMP-2 are evident in treated cats; TIMP-1 (Tissue Inhibitor of Metalloproteinases) is not associated with the downregulation of MMP-2. Both MMP-2 and MMP-9, as well as MCP-1, are considered important contributors to the penetration of virally-infected cells across the BBB (Webster, 2006). Additional comments follow the table.

[2] = molecular target: synthetic peptide F2, the carboxy-terminal zinc finger domain of HIV-1 (Human immunodeficiency virus type 1 group M subtype B, UniProt P12493); conditions: 1:1 metal:F2, 10^−4 mole/liter in PBS
Method: The synthetic peptide F2, the carboxy-terminal zinc finger domain of HIV-1, was examined by ultraviolet-visible absorption spectroscopy for its interaction with various metals. […] Stock solutions of 2×10^−4 mole/liter F2 peptide were prepared in phosphate buffered saline (PBS) without calcium or magnesium; known stock concentrations of Fe(II), Co(II), Zn(II) and Pt(IV) metals were also prepared in PBS. One to one ratios of F2 peptide with each metal were individually combined at room temperature with final concentrations of 10^−4 mole/liter, and spectra were collected at various times using a Nanodrop Spectrophotometer (Thermo Scientific, Inc.) having a xenon flash lamp and requiring <2 microliters of sample deposited directly onto an optical lense.

Calcitonin = assay: Feline blood serum immunofluorescent bead analysis: Calcitonin; format: in vivo, cat; conditions: cats BR, CF
Method: as §1

[3] = tested on: Petaluma strain of FIV (proviral DNA in PBMC); assay: Proviral load in peripheral blood mononuclear cells by TM-PCR; format: in vivo, domestic cat; conditions: for Proviral Load in PBMC: cats BR, CF
Text: Currently available antiretrovirals require daily dosing, often in combination therapy. Two 12^+-year old specific-pathogen-free domestic female cats infected >5 years with the Petaluma strain of FIV were used in this study. The animals were housed individually in a climatized animal facility in accordance with standards, had ad libitum access to fresh water and food, and were sedated with Tiletamine/Zolazepam intramuscularly prior to any procedure. The cats weighed from 3-5 kg each. Three weeks before initiation of the treatment and at scheduled times, samples were collected for hematological and virological analyses. The cats received 9 intravenous doses of 3 mg/kg FX101 over 4.5 weeks (2× weekly).
Genomic DNA was extracted from the PBMC using the QIAamp DNA Blood Mini kit (QIAGEN). Proviral DNA was quantified from 0.4 ug genomic DNA by TM-PCR under the same conditions used for cDNA amplification except that the reaction mixture volume was 25 ul (n=3). The sensitivity of the assay was 100 copies/ug genomic DNA (Pistello, 2005). Proviral load varied over the course of treatment, but measured much lower than baseline pretreatment measures both 6 and 9 months later (27 and 38 weeks, respectively). This measure reflects viral integration into the host PBMCs, primed for production of viral particles with commencement of transcription. […] This is indicative of viral clearance and immune recovery, including apoptotic elimination of virally-infected cells. Viral reservoirs, such as those of macrophages and monocytes, have prevented eradication of lentiviruses (Nicastri, 2008).
0.1664 g FX101 was dissolved into 30 mL 15% DMSO/PBS and stirred overnight. This solution was sterile-filtered using a 20-mL syringe fitted with a […] Sarstedt filter. Each dose was administered under anesthesia, a 1.5 mL venous injection using a 2.5 mL syringe fitted with a 22G 1¼-in. needle (latex free). Feline BR weighed 3.2 kg at the start of the experiment and CF weighed 2.8 kg. Each received 8.3 mg drug with each dose, so dosages were 2.6 mg/kg for BR and 3.0 mg/kg for CF.

TIMP-1 = assay: Feline blood serum immunofluorescent bead analysis: TIMP-1; format: in vivo, cat; conditions: cats BR, CF
Method: as §1

[4] = tested on: HIV-Infected Human Monocyte-Derived Macrophages; assay: Reverse transcription rates in HIV-infected monocyte-derived macrophages; format: cell-based; conditions: 1 to 10 uM; vs untreated and mock-infected MDM
Method: Primary human monocyte-derived macrophages (MDM) were prepared by culturing elutriated monocytes in RPMI-1640 medium, supplemented with 10% fetal bovine serum for 5 to 7 days on ultra-low attachment plates. MDMs were detached from the plates and plated onto tissue culture dishes or microscope culture chambers. MDMs in 6-well plates were infected with WT pNL(AD8) virus stocks and 2×10^6 reverse transcriptase cpm/well. Various incubated concentrations of platinum(IV) compound ranging from 1 to 10 uM were compared with untreated (no drug) and mock-infected MDM reverse transcription rates (counts per minute/microliter). Medium in the MDM cultures was changed every two days and an aliquot was reserved for reverse transcriptase (RT) activity at each time point (Gousset, 2008). […] This activity parallels that observed by Mark-Danieli et al. (2005) by certain zinc finger mutations of the nucleocapsid protein; other investigators have reported decreases or no changes in transcription rates with various mutations (Ramboarina, 2004; Houzet, 2008). […] Increasing the efficiency of reverse transcription initiation is detrimental to viral replication (Thomas and Gorelick, 2008). One role of nucleocapsid proteins is regulation of the transcription cadence in virally-infected cells.

[5] = tested on: transfected HeLa and HEK-293 cells; assay: Viral transcription or infectivity in transfected HeLa and HEK-293 cells; format: cell-based
[6] = post treatment (one-month FX101 treatment)

SMILES: [NH2][Pt]([NH2])([Cl])([Cl])([Cl])[N+](=O)[O-] [FX101, nitrotrichlorodiamminoPt(IV)]
- p24 Gag proteins [1]: greatly reduced
- HIV-1 virus release efficiency ([1]; concentration-dependent): greatly reduced
- IL-13, relative blood serum measure (IL-13; [6]): 27 pg/mL and 34 pg/mL
- IL-13, relative blood serum measure (IL-13; pretreatment): 15 pg/mL and 12 pg/mL
- comparative absorption at 250 nm of metal with F2 peptide [2]: 0.118
- Calcitonin, relative blood serum measure (Calcitonin; [6]): 2.9 pg/mL
- Calcitonin, relative blood serum measure (Calcitonin; pretreatment): 7.6 pg/mL and 11 pg/mL
- PBMC proviral load immediately following final dosing (in words) ([3]; 14 days after the final dosing, both animals): short increase
- Proviral Load in PBMC ([3]; Aug. 23, 2007 start of treatment period, blood collected prior to dosing): 4472 proviral DNA copies/ug genomic DNA and 6867 proviral DNA copies/ug genomic DNA
- Proviral Load in PBMC ([3]; Aug. 30, 2007 treatment period): 5803 proviral DNA copies/ug genomic DNA and 6476 proviral DNA copies/ug genomic DNA
- Proviral Load in PBMC ([3]; Jun. 12, 2008 (+38 wk) post treatment): 1747 proviral DNA copies/ug genomic DNA and 1350 proviral DNA copies/ug genomic DNA
- Proviral Load in PBMC ([3]; Mar. 27, 2008 (+27 wk) post treatment): 1250 proviral DNA copies/ug genomic DNA and 1000 proviral DNA copies/ug genomic DNA
- Proviral Load in PBMC ([3]; Oct. 4, 2007 (+2 wk) post treatment): 14500 proviral DNA copies/ug genomic DNA and 14724 proviral DNA copies/ug genomic DNA
- Proviral Load in PBMC ([3]; Oct. 20, 2007 (+4 wk) post treatment): 4211 proviral DNA copies/ug genomic DNA and 2790 proviral DNA copies/ug genomic DNA
- Proviral Load in PBMC ([3]; Sep. 20, 2007 treatment period): 4152 proviral DNA copies/ug genomic DNA and 4660 proviral DNA copies/ug genomic DNA
- proviral loads over subsequent months (in words) ([3]; months after treatment, vs pretreatment baseline): declined over subsequent months, even below pretreatment baseline measures
- TIMP-1, relative blood serum measure (TIMP-1; [6]): 9.0 ng/mL and 7.3 ng/mL
- TIMP-1, relative blood serum measure (TIMP-1; pretreatment): 6.5 ng/mL and 9.8 ng/mL
- reverse transcription rate [4]: do not inhibit reverse transcription in this system, but rather increase this rate
- direct inhibition of viral transcription or infectivity [5]: did not act as a direct inhibitor of viral transcription or infectivity

— patent US8895610B1, “Platinum (IV) compounds targeting zinc finger domains” (priority 2007, dated 2014)
